Several values for one entry are separate records, joined by “and”; a condition that tells them apart may be missing. Identical values can stand only once.
What was measured:
[1] = molecular target: full-length wt-BTK enzyme (Homo sapiens (Human), UniProt Q06187); test: Biochemical kinase assay wt-BTK (IMAP)
Procedure, shortened: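 Compound and enzyme (final 1.2 nM) were pre-incubated for 1 h at RT, after which the reaction was started with 4 μM ATP plus 50 nM fluorescein-MBP substrate peptide. After 2 h in the dark, the IMAP progressive binding reagent stopped the reaction, and phosphorylation was read by fluorescence polarization.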

[2] = molecular target: full-length BTK C481S enzyme (Homo sapiens (Human), UniProt Q06187, C481S); test: Biochemical kinase assay BTK C481S (IMAP)
full-length BTK C481S enzyme, sequence (Q06187 whole entry C481S): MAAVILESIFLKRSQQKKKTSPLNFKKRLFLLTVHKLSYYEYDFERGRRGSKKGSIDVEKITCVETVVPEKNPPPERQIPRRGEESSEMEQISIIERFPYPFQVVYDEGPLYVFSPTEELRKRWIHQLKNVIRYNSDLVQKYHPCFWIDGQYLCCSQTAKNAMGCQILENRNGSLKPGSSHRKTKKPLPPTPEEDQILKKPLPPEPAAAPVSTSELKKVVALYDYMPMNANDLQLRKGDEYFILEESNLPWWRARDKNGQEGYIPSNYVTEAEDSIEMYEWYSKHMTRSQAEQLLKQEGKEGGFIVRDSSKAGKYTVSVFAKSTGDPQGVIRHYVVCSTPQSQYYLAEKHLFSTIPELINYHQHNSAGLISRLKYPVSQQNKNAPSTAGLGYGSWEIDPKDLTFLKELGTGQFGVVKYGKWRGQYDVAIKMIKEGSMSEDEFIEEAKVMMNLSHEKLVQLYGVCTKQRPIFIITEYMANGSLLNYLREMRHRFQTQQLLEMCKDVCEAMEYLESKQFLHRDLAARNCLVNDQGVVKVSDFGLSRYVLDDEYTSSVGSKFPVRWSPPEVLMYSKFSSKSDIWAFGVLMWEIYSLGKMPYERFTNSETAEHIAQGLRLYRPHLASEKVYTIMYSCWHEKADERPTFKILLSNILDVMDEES
Procedure, shortened: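 IC50 values come from IMAP fluorescence polarization after quenching with progressive binding solution. The reaction ran 2 h at room temperature in the dark with 1.2 nM full-length C481S enzyme, 7 μM ATP and 50 nM fluorescein-labelled MBP-derived peptide, following a 1 h dark pre-incubation of compound with enzyme.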

[3] = tested on: wt-REC-1 mantle cell lymphoma cells; test: Cell proliferation assay wt-REC-1 (ATPlite, 72 hours); format: cell-based; details: 72 h; read-out: IC50 wt-REC-1
Procedure, shortened: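 Luminescent viability read over 72 h, start-of-incubation signal recorded separately to separate growth from cell death. Percentage growth referenced to compound-free 0.3% DMSO wells; IC50 from 4-parameter logistic fit.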

REC-1 T474I cell lines = test: Cell proliferation assay REC-1 BTK T474I knock-in cells (ATPlite, 72 hours); format: cell-based; details: Homo sapiens, Rec1; 72 hours; read-out: IC50 REC-1 T474I
Procedure, shortened: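 REC-1 cells carrying CRISPR knock-in mutant BTK, single-cell cloned and sequence-confirmed, were exposed to compound for 72 h and read by ATPlite luminescence. Percentage growth was calculated against the signal at the start of incubation and against untreated 0.3% DMSO wells as maximum growth.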

wt-BTK = wt-BTK (Homo sapiens (Human), UniProt Q06187); test: Binding kinetics measurements (Surface Plasmon Resonance) on wt-BTK; details: for Tau (h) wt-BTK (Act): target residence time, SPR; for Kd: binding affinity by Surface Plasmon Resonance (SPR)
wt-BTK, sequence (Q06187 whole entry): as the sequence (Q06187 whole entry C481S) above, with S481C counted along it
Method: (§1) Binding kinetics measurements on wt-BTK, BTK […], BTK […], BTK […] and BTK […] (Surface Plasmon Resonance) Streptavidin-coated chips (Cat. No. BR100531), disposables and maintenance kits for Biacore were purchased from Cytiva (Eindhoven, The Netherlands). […] Remaining streptavidin was blocked with biocytin. Immobilization was performed at 4° C. Subsequent assay steps were conducted at 22° C. After changing buffer to Biacore buffer with 1% (v/v) dimethylsulfoxide (DMSO), a pre-run was performed for a period of at least 30 min at a flow rate of 30 μl/min to obtain a stable surface. The kinetic constants of the compounds were determined with single cycle kinetics with five consecutive injections with an increasing compound concentration with ranges of 3.16-316 nM. […] To circumvent problems of mass transport limitation, a flow rate of 30 μl/min was used. A blank run with the same conditions was performed before the compound was injected. The SPR sensorgrams were analyzed with Biacore Evaluation Software by using a method of double referencing. First the reference channel was subtracted from the channel containing immobilized protein. Subsequently, the reference curve obtained with buffer injections was subtracted. […] Compounds that bound according to an induced fit model were fitted with a two-state reaction model. The kinetic constants (ka, […], KD) of duplicates were geometrically averaged. […] Target residence for an induced fit model was calculated as described (Tummino and Copeland, 2008).

BTK T474I = BTK T474I (Homo sapiens (Human), UniProt Q06187, T474I); test: Binding kinetics measurements (Surface Plasmon Resonance) on BTK T474I; details: for Tau (h) BTK T474I (Act): target residence time, SPR; for Kd: binding affinity by Surface Plasmon Resonance (SPR)
BTK T474I, sequence (Q06187 whole entry T474I): as the sequence (Q06187 whole entry C481S) above, with T474I, S481C counted along it
Method: as §1

[4] = tested on: wt-TMD8 diffuse large B-cell lymphoma cells; test: Cell proliferation assay wt-TMD8 (ATPlite, 120 hours); format: cell-based; details: B-cell; wt-TMD8 cells, 120 hours, ATPlite; read-out: IC50 wt-TMD8
Procedure, shortened: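 Readout is percentage growth from ATPlite 1Step luminescence after 5 days (120 h) compound treatment of wt-TMD8 lymphoma cells (1600/well, RPMI-1640 + 10% FBS). Time-zero signal separates growth inhibition from cell kill; 0.3% DMSO wells without compound define maximal growth.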

BTK C481S = BTK C481S (Homo sapiens (Human), UniProt Q06187, C481S); test: Binding kinetics measurements (Surface Plasmon Resonance) on BTK C481S
BTK C481S, sequence (Q06187 whole entry C481S): as the sequence (Q06187 whole entry C481S) above
Method: as §1

full-length wt-BTK enzyme, sequence (Q06187 whole entry): as the sequence (Q06187 whole entry C481S) above, with S481C counted along it

Row | Compound | IC50 [1] | IC50 [2] | IC50 [3] | Tau (h) wt-BTK (Act) (wt-BTK) | Tau (h) BTK T474I (Act) (BTK T474I) | IC50 [4] | Kd (wt-BTK) | Kd (BTK C481S; binding affinity by Surface Plasmon Resonance (SPR)) | Tau (h) BTK C418S (Act) (BTK C481S; target residence time for BTK C481S, SPR) | Kd (BTK T474I) | IC50 (REC-1 T474I cell lines)
1 | N#Cc1ccnc(NC(=O)c2ccc(-c3nc4n5c(cnc(N)c35)/C=C/CCOCCC(=O)N[C@@H]3CCC[C@@H]4C3)cc2)c1 [Example 205] | < 5 nM | < 5 nM | < 100 nM | 1.80 h | 1.15 h | < 100 nM | – | – | – | – | < 100 nM
2 | C[C@@H]1CC(=O)N[C@@H]2CC[C@H](C2)c2nc(-c3ccc(C(=O)Nc4cc(C(F)(F)F)ccn4)cc3)c3c(N)ncc(n23)/C=C/CCN1 [Example 207] | < 5 nM | < 5 nM | < 100 nM | 2.55 h | – | < 100 nM | < 5 nM | < 5 nM | 8.44 h | < 2 nM | 500 to 10000 nM
3 | COc1ccc(F)cc1C(=O)NCc1ccc(-c2nc3n4c(cnc(N)c24)/C=C/CCOCCC(=O)N[C@@H]2CCC[C@@H]3C2)cc1 [Example 210] | < 5 nM | < 5 nM | < 100 nM | 1.22 h | 0.68 h | < 100 nM | < 5 nM | – | – | < 2 nM | < 100 nM
4 | COc1ccc(F)cc1C(=O)NCc1ccc(-c2nc3n4c(cnc(N)c24)/C=C/COCCC(=O)N[C@@H]2CCC[C@@H]3C2)cc1 [Example 211] | < 5 nM | < 5 nM | < 100 nM | – | – | < 100 nM | < 5 nM | – | – | 10 to 50 nM and < 5 nM | 500 to 10000 nM
5 | COc1ccc(F)cc1C(=O)NCc1ccc(-c2nc3n4c(cnc(N)c24)/C=C/CCOCCC(=O)N[C@@H]2CC[C@@H]3C2)cc1 [Example 213] | < 5 nM | < 5 nM | < 100 nM | 2.29 h | 0.93 h | < 100 nM | < 5 nM | – | – | < 2 nM | < 100 nM
6 | Cn1nc(NC(=O)c2ccc(-c3nc4n5c(cnc(N)c35)/C=C/CCOCCC(=O)N[C@@H]3CC[C@@H]4C3)cc2)cc1C(F)(F)F [Example 216] | < 5 nM | < 5 nM | < 100 nM | 4.79 h | 1.28 h | < 100 nM | – | – | – | – | < 100 nM

More lines, main results first:

Row | IC50 [1] | IC50 [2] | IC50 [3] | Tau (h) wt-BTK (Act) (wt-BTK) | Tau (h) BTK T474I (Act) (BTK T474I) | IC50 [4] | Kd (wt-BTK) | Kd (BTK C481S; binding affinity by Surface Plasmon Resonance (SPR)) | Tau (h) BTK C418S (Act) (BTK C481S; target residence time for BTK C481S, SPR) | Kd (BTK T474I) | Compound | IC50 (REC-1 T474I cell lines)
7 | < 5 nM | < 5 nM | < 100 nM | 9.76 h | 1.18 h | < 100 nM | – | – | – | – | Cc1ccnc(NC(=O)c2ccc(-c3nc4n5c(cnc(N)c35)/C=C/CCOCCC(=O)N[C@@H]3CC[C@@H]4C3)cc2)c1 [Example 215] | < 100 nM
8 | < 5 nM | < 5 nM | < 100 nM | 2.78 h | 0.70 h | < 100 nM | – | – | – | – | COc1ccnc(NC(=O)c2ccc(-c3nc4n5c(cnc(N)c35)/C=C/CCOCCC(=O)N[C@@H]3CC[C@@H]4C3)cc2)c1 [Example 217] | < 100 nM
9 | < 5 nM | < 5 nM | < 100 nM | 5.31 h | 0.60 h | < 100 nM | – | – | – | – | Nc1ncc2n3c(nc(-c4ccc(C(=O)Nc5cc(C(F)F)ccn5)cc4)c13)[C@@H]1CC[C@H](C1)NC(=O)CCOCC/C=C/2 [Example 222] | 100 to 500 nM
10 | < 5 nM | < 5 nM | < 100 nM | 3.69 h | 1.60 h | < 100 nM | – | – | – | – | Nc1ncc2n3c(nc(-c4ccc(C(=O)Nc5cc(OC(F)F)ccn5)cc4)c13)[C@@H]1CC[C@H](C1)NC(=O)CCOCC/C=C/2 [Example 224] | < 100 nM

Source: patent US20250074911A1, “MACROCYCLIC BTK INHIBITORS” (Crossfire Oncology Holding B.V., priority 2021, published 2025)
